Results from patent publication US20100144626A1, “Treatment of Multi-Drug Resistant Bacterial Infections” (priority 2006, published 2010).
≈ marks a conversion by molar mass, not a printed value.

Experiments:
[1] = system: VISA, strain USA/VISA 5827; assay: MIC, agar dilution (BSAC guidelines); assay type: cell-based; conditions: Staphylococcus aureus, Table 2, read-out: Minimum inhibitory concentration (MIC)
Procedure: (§1) In example experiments miconazole nitrate, was dissolved in methanol and econazole nitrate and clotrimazole were dissolved in DMSO and methanol respectively. Other solvents that may be used include caster oil, pyridine, DMSO and 0.9% saline. For IV administration agents may be solubilised in polyethoxylated caster oil, or cyclodextrins such as sulfobutylether7-βcyclodextrin or hydroxypropyl-β-cyclodextrin and lactic acid. Minimum inhibitory concentrations (MICs) of a range of clinical and control bacterial organisms were measured according to BSAC (British Society for Antimicrobial Chemotherapy) guidelines, described briefly as follows;
(§2) Preparation of Agar Plates and Broths
(§3) Stock solutions of each agent were prepared using the formula:
(§4) Where P=μg of active compound per mg (μg/mg) • V=volume required (mL) • C=final concentration of solution (mg/L) • W=weight of agent (mg) to be dissolved in volume V (mL)
(§5) Stock solutions were prepared at concentrations of 1000 mg/L and 100 mg/L. The appropriate amounts of each stock solution were added to separate Petri dishes give the following final concentrations (after the addition of 20 mL molten agar): 128, 64, 32, 16, 8, 4, 2, 1, 0.5, 0.25, 0.12, 0.06, 0.03, 0.015 mg/L.
(§6) Volumes (20 mL) of cooled molten IST agar (oxoid) was added to each Petri dish and mixed by swirling.
(§7) After drying, the plates were stored at 4° C. and protected from light. Plates were used on the day of preparation.
(§8) The test organisms were grown overnight in 5 mL IST broth. Using a dilution in 0.9% saline of 1:500 for Gram-negative organisms and 1:100 for Gram-positive organisms, the appropriate agar plates were inoculated using a multipoint inoculator.
(§9) Plates were incubated at 37° C. in air for 18-20 hours.
(§10) The MIC is the minimum amount of an antibiotic at which there is no visible growth of bacteria. Tiny single colonies or faint hazes were not counted as growth.

[2] = system: Enterococcus faecium (VRE) E19 UAA/522 VanB; assay: MIC, agar dilution (BSAC guidelines); assay type: cell-based; conditions: Table 2, E. faecium (VRE) E19 UAA/522 VanB, read-out: Minimum inhibitory concentration (MIC)
Procedure: as §1, §2, §3, §4, §5, §6, §7, §8, §9, §10

[3] = system: Enterococcus faecium (VRE) E15 VanA ATCC 4147; assay: MIC, agar dilution (BSAC guidelines); assay type: cell-based; conditions: Table 2, E. faecium (VRE) E15 VanA ATCC 4147, read-out: Minimum inhibitory concentration (MIC)
Procedure: as §1, §2, §3, §4, §5, §6, §7, §8, §9, §10

[4] = system: Enterococcus faecium (VRE) NCTC 7171; assay: MIC, agar dilution (BSAC guidelines); assay type: cell-based; conditions: Table 2, E. faecium (VRE) NCTC 7171, read-out: Minimum inhibitory concentration (MIC)
Procedure: as §1, §2, §3, §4, §5, §6, §7, §8, §9, §10

[5] = system: Enterococcus faecalis (VRE) E8 VanA; assay: MIC, agar dilution (BSAC guidelines); assay type: cell-based; conditions: Table 2, E. faecalis (VRE) E8 VanA, read-out: Minimum inhibitory concentration (MIC)
Procedure: as §1, §2, §3, §4, §5, §6, §7, §8, §9, §10

[6] = system: Enterococcus faecium (VRE) VanR B145344C LFE; assay: MIC, agar dilution (BSAC guidelines); assay type: cell-based; conditions: Table 2, E. faecium (VRE) VanR B145344C LFE, read-out: Minimum inhibitory concentration (MIC)
Procedure: as §1, §2, §3, §4, §5, §6, §7, §8, §9, §10

[7] = system: Escherichia coli NCTC 10418; assay: MIC, agar dilution (BSAC guidelines); assay type: cell-based; conditions: NCTC10418, Table 2, E. coli NCTC 10418, read-out: Minimum inhibitory concentration (MIC)
Procedure: as §1, §2, §3, §4, §5, §6, §7, §8, §9, §10

[8] = system: Staphylococcus epidermidis ATCC 1228; assay: MIC, agar dilution (BSAC guidelines); assay type: cell-based; conditions: ATCC1228, Table 2, S. epidermidis ATCC 1228, read-out: Minimum inhibitory concentration (MIC)
Procedure: as §1, §2, §3, §4, §5, §6, §7, §8, §9, §10

[9] = system: Pseudomonas aeruginosa NCTC 10662; assay: MIC, agar dilution (BSAC guidelines); assay type: cell-based; conditions: NCTC10662, Table 2, P. aeruginosa NCTC 10662, read-out: Minimum inhibitory concentration (MIC)
Procedure: as §1, §2, §3, §4, §5, §6, §7, §8, §9, §10

[10] = system: VISA, strain VISA 3900 UK; assay: MIC, agar dilution (BSAC guidelines); assay type: cell-based; conditions: Staphylococcus aureus, Table 2, read-out: Minimum inhibitory concentration (MIC)
Procedure: as §1, §2, §3, §4, §5, §6, §7, §8, §9, §10

[11] = system: VISA, strain USA/VISA 5836; assay: MIC, agar dilution (BSAC guidelines); assay type: cell-based; conditions: Staphylococcus aureus, Table 2, read-out: Minimum inhibitory concentration (MIC)
Procedure: as §1, §2, §3, §4, §5, §6, §7, §8, §9, §10

[12] = system: strains of Staphylococci and Enterococci with reduced susceptibility to vancomycin; assay: Growth inhibition, summary of MIC testing; assay type: cell-based; conditions: summary in words
Procedure: as §1, §5, §8, §9, §10

[13] = in vivo; cited from earlier work

MIC [1] | MIC [2] | MIC [3] | MIC [4] | MIC [5] | MIC [6] | MIC [7] | MIC [8] | MIC [9] | MIC [10] | MIC [11] | SMILES | activity against strains of Staphylococci and Enterococci with reduced susceptibility to vancomycin [12] | systemic absorption [13] | topical dose recovered in the urine or faeces [13]
> 128 µg/mL | > 128 µg/mL | > 128 µg/mL | > 128 µg/mL | > 128 µg/mL | > 128 µg/mL | > 128 µg/mL | > 128 µg/mL | > 128 µg/mL | > 128 µg/mL | > 128 µg/mL | c1ccc(-c2ccc(C(c3ccccc3)n3ccnc3)cc2)cc1 (centres unmarked) [Bifonazole] | did not show this activity |  | 
> 128 µg/mL | > 128 µg/mL | > 128 µg/mL | > 128 µg/mL | > 128 µg/mL | > 128 µg/mL | > 128 µg/mL | > 128 µg/mL | > 128 µg/mL | > 128 µg/mL | > 128 µg/mL | OC(Cn1cncn1)(Cn1cncn1)c1ccc(F)cc1F [Fluconazole] | did not show this activity |  | 
64 µg/mL (≈ 120 µM) | 128 µg/mL (≈ 241 µM) | 16 µg/mL (≈ 30.1 µM) | 128 µg/mL (≈ 241 µM) | > 256 µg/mL | 128 µg/mL (≈ 241 µM) | > 256 µg/mL | 64 µg/mL (≈ 120 µM) | > 256 µg/mL | 64 µg/mL (≈ 120 µM) | 64 µg/mL (≈ 120 µM) | CC(=O)N1CCN(c2ccc(OCC3COC(Cn4ccnc4)(c4ccc(Cl)cc4Cl)O3)cc2)CC1 (centres unmarked) [Ketoconazole] | did not show this activity |  | 
 |  |  |  |  |  |  |  |  |  |  | Clc1ccc(COC(Cn2ccnc2)c2ccc(Cl)cc2Cl)cc1 (centres unmarked) [econazole nitrate] |  | extremely low | Less than 1%
